Source: ChEMBL document CHEMBL3885861, “Open TG-GATES”

Species on record: Rattus norvegicus
Assay: Open TG-GATES - Regimen: Single
Type: toxicity, organism-based, Sprague-Dawley
Design: regimen Single, gender Male, age 6 weeks
Conditions: in vivo, po, 300 mg/kg, route gavage, dose level Middle; for APTT / Bas / Eos / Fbg / Hb / Ht / Lym / MCH / MCHC / MCV / Mono / Neu / PT / Plat / RBC / Ret / WBC: tissue Blood; for KIDNEY_L / KIDNEY_R / KIDNEY_TOTAL: tissue Kidney; for LIVER: tissue Liver; for A/G / ALP / ALT / AST / BUN / CRE / Ca / Cl / DBIL / GLC / IP / K / LDH / Na / PL / RALB / TBIL / TC / TG / TP / gamma-GTP: tissue Plasma

Structure (SMILES): O=C(O)c1cc(/N=N/c2ccc(S(=O)(=O)Nc3ccccn3)cc2)ccc1O [SULFASALAZINE]
- TERMINAL_BW (3 h): 212.5 g
- APTT (3 h): 18.5 s
- Bas (3 h): 0%
- Eos (3 h): 1%
- Fbg (3 h): 215.2 mg/dL
- Hb (3 h): 13.1 g/dL
- Ht (3 h): 38.5%
- Lym (3 h): 79%
- MCH (3 h): 21.3 pg
- MCHC (3 h): 34%
- MCV (3 h): 62.6 fL
- Mono (3 h): 2.6%
- Neu (3 h): 16.2%
- PT (3 h): 12.9 s
- Plat (3 h): 115.5 x10_4/uL
- RBC (3 h): 615.6 x10_4/ul
- Ret (3 h): 6.7%
- WBC (3 h): 93.5 x10_2/uL
- KIDNEY_L (3 h): 1 g
- KIDNEY_R (3 h): 0.9 g
- KIDNEY_TOTAL (3 h): 1.9 g
- LIVER (3 h): 9.7 g
- A/G (3 h): 1.6
- ALP (3 h): 897.6 IU/L
- ALT (3 h): 36.6 IU/L
- AST (3 h): 61.4 IU/L
- BUN (3 h): 10.8 mg/dL
- CRE (3 h): 0.4 mg/dL
- Ca (3 h): 10.4 mg/dL
- Cl (3 h): 102.2 meq/L
- DBIL (3 h): 0.064 mg/dL
- GLC (3 h): 198.2 mg/dL
- IP (3 h): 9.6 mg/dL
- K (3 h): 3.7 meq/L
- LDH (3 h): 147.2 IU/L
- Na (3 h): 140.6 meq/L
- PL (3 h): 140 mg/dL
- RALB (3 h): 3.3 g/dL
- TBIL (3 h): 0.1 mg/dL
- TC (3 h): 71.2 mg/dL
- TG (3 h): 59.6 mg/dL
- TP (3 h): 5.4 g/dL
- gamma-GTP (3 h): 1 IU/L
- TERMINAL_BW (6 h): 209.1 g
- APTT (6 h): 18.9 s
- Bas (6 h): 0%
- Eos (6 h): 1%
- Fbg (6 h): 230.2 mg/dL
- Hb (6 h): 13.2 g/dL
- Ht (6 h): 39%
- Lym (6 h): 76.2%
- MCH (6 h): 21.4 pg
- MCHC (6 h): 34%
- MCV (6 h): 63.1 fL
- Mono (6 h): 3%
- Neu (6 h): 19%
- PT (6 h): 12.6 s
- Plat (6 h): 115.4 x10_4/uL
- RBC (6 h): 618.8 x10_4/ul
- Ret (6 h): 7.4%
- WBC (6 h): 81.1 x10_2/uL
- KIDNEY_L (6 h): 1 g
- KIDNEY_R (6 h): 0.9 g
- KIDNEY_TOTAL (6 h): 1.9 g
- LIVER (6 h): 9.8 g
- A/G (6 h): 1.5
- ALP (6 h): 961.6 IU/L
- ALT (6 h): 33.8 IU/L
- AST (6 h): 68.8 IU/L
- BUN (6 h): 11.4 mg/dL
- CRE (6 h): 0.4 mg/dL
- Ca (6 h): 10.8 mg/dL
- Cl (6 h): 102.2 meq/L
- DBIL (6 h): 0.072 mg/dL
- GLC (6 h): 190 mg/dL
- IP (6 h): 9.5 mg/dL
- K (6 h): 4 meq/L
- LDH (6 h): 191.4 IU/L
- Na (6 h): 140.8 meq/L
- PL (6 h): 164.4 mg/dL
- RALB (6 h): 3.4 g/dL
- TBIL (6 h): 0.1 mg/dL
- TC (6 h): 88.6 mg/dL
- TG (6 h): 79.8 mg/dL
- TP (6 h): 5.7 g/dL
- gamma-GTP (6 h): 1 IU/L
- TERMINAL_BW (9 h): 206.7 g
- APTT (9 h): 19.2 s
- Bas (9 h): 0%
- Eos (9 h): 1%
- Fbg (9 h): 233.2 mg/dL
- Hb (9 h): 13 g/dL
- Ht (9 h): 38.1%
- Lym (9 h): 72.8%
- MCH (9 h): 21.6 pg
- MCHC (9 h): 34.1%
- MCV (9 h): 63.2 fL
- Mono (9 h): 2.6%
- Neu (9 h): 22.6%
- PT (9 h): 12.7 s
- Plat (9 h): 118.9 x10_4/uL
- RBC (9 h): 603 x10_4/ul
- Ret (9 h): 7.5%
- WBC (9 h): 81.5 x10_2/uL
- KIDNEY_L (9 h): 0.9 g
- KIDNEY_R (9 h): 0.9 g
- KIDNEY_TOTAL (9 h): 1.8 g
- LIVER (9 h): 8.6 g
- A/G (9 h): 1.5
- ALP (9 h): 961.6 IU/L
- ALT (9 h): 32.4 IU/L
- AST (9 h): 65.2 IU/L
- BUN (9 h): 8.8 mg/dL
- CRE (9 h): 0.3 mg/dL
- Ca (9 h): 10.5 mg/dL
- Cl (9 h): 103.2 meq/L
- DBIL (9 h): 0.064 mg/dL
- GLC (9 h): 198.6 mg/dL
- IP (9 h): 9.3 mg/dL
- K (9 h): 3.5 meq/L
- LDH (9 h): 183 IU/L
- Na (9 h): 140.8 meq/L
- PL (9 h): 149.2 mg/dL
- RALB (9 h): 3.3 g/dL
- TBIL (9 h): 0.1 mg/dL
- TC (9 h): 83.2 mg/dL
- TG (9 h): 44.2 mg/dL
- TP (9 h): 5.5 g/dL
- gamma-GTP (9 h): 1.2 IU/L
- TERMINAL_BW (24 h): 224.2 g
- APTT (24 h): 17.4 s
- Bas (24 h): 0%
- Eos (24 h): 0.8%
- Fbg (24 h): 233 mg/dL
- Hb (24 h): 12.8 g/dL
- Ht (24 h): 37.6%
- Lym (24 h): 75%
- MCH (24 h): 21.2 pg
- MCHC (24 h): 34.2%
- MCV (24 h): 62.1 fL
- Mono (24 h): 2.6%
- Neu (24 h): 19.8%
- PT (24 h): 12.4 s
- Plat (24 h): 122 x10_4/uL
- RBC (24 h): 605.8 x10_4/ul
- Ret (24 h): 6.5%
- WBC (24 h): 104.1 x10_2/uL
- KIDNEY_L (24 h): 1 g
- KIDNEY_R (24 h): 1 g
- KIDNEY_TOTAL (24 h): 1.9 g
- LIVER (24 h): 10.6 g
- A/G (24 h): 1.4
- ALP (24 h): 992.4 IU/L
- ALT (24 h): 40 IU/L
- AST (24 h): 62.8 IU/L
- BUN (24 h): 13.8 mg/dL
- CRE (24 h): 0.4 mg/dL
- Ca (24 h): 10.9 mg/dL
- Cl (24 h): 101.8 meq/L
- DBIL (24 h): 0.088 mg/dL
- GLC (24 h): 187.2 mg/dL
- IP (24 h): 7.2 mg/dL
- K (24 h): 3.9 meq/L
- LDH (24 h): 224 IU/L
- Na (24 h): 140.6 meq/L
- PL (24 h): 163.6 mg/dL
- RALB (24 h): 3.3 g/dL
- TBIL (24 h): 0.1 mg/dL
- TC (24 h): 86.8 mg/dL
- TG (24 h): 85.6 mg/dL
- TP (24 h): 5.6 g/dL
- gamma-GTP (24 h): 1.2 IU/L
